According to PubChem BioAssay (NCI):
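Method: 48-hour compound exposure of cells in 96-well plates, five concentrations, linear interpolation of endpoints. TGI is the concentration that stops growth completely.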

Columns and labels:
Assay in all cases: DTP human tumour cell line panel, 48 h
NCI-H522 lung = system: NCI-H522 lung
RPMI-8226 leukemia = system: RPMI-8226 leukemia
CCRF-CEM leukemia = system: CCRF-CEM leukemia
SK-MEL-2 melanoma = system: SK-MEL-2 melanoma
DU-145 prostate = system: DU-145 prostate
UO-31 renal = system: UO-31 renal
MDA-MB-435 = system: MDA-MB-435
OVCAR-8 ovarian = system: OVCAR-8 ovarian
SN12C renal = system: SN12C renal
T-47D breast = system: T-47D breast
MALME-3M melanoma = system: MALME-3M melanoma
A498 renal = system: A498 renal
HOP-62 NSCLC = system: HOP-62 NSCLC
HCC-2998 colon = system: HCC-2998 colon
NCI-H23 lung = system: NCI-H23 lung
RXF 393 renal = system: RXF 393 renal
LOX IMVI melanoma = system: LOX IMVI melanoma
KM12 colon = system: KM12 colon
K-562 leukemia = system: K-562 leukemia
HOP-92 NSCLC = system: HOP-92 NSCLC
MCF7 breast = system: MCF7 breast
HT29 colon = system: HT29 colon
HCT-116 colon = system: HCT-116 colon
NCI/ADR-RES ovarian = system: NCI/ADR-RES ovarian
MDA-N = system: MDA-N
MDA-MB-231 breast = system: MDA-MB-231 breast
M14 melanoma = system: M14 melanoma
OVCAR-5 ovarian = system: OVCAR-5 ovarian
BT-549 breast = system: BT-549 breast
SK-MEL-28 melanoma = system: SK-MEL-28 melanoma
SR leukemia = system: SR leukemia
UACC-62 melanoma = system: UACC-62 melanoma
NCI-H226 lung = system: NCI-H226 lung
A549 NSCLC = system: A549 NSCLC
PC-3 prostate = system: PC-3 prostate
786-0 renal = system: 786-0 renal
SNB-75 CNS = system: SNB-75 CNS
MOLT-4 leukemia = system: MOLT-4 leukemia
SW-620 colon = system: SW-620 colon
TK-10 renal = system: TK-10 renal
ACHN renal = system: ACHN renal
UACC-257 melanoma = system: UACC-257 melanoma
HS 578T breast = system: HS 578T breast
SF-268 CNS = system: SF-268 CNS
OVCAR-4 ovarian = system: OVCAR-4 ovarian
HL-60(TB) leukemia = system: HL-60(TB) leukemia
EKVX NSCLC = system: EKVX NSCLC
SNB-19 CNS = system: SNB-19 CNS
OVCAR-3 ovarian = system: OVCAR-3 ovarian
IGROV1 ovarian = system: IGROV1 ovarian
U251 CNS = system: U251 CNS
SF-295 CNS = system: SF-295 CNS
HCT-15 colon = system: HCT-15 colon
COLO 205 colon = system: COLO 205 colon
CAKI-1 renal = system: CAKI-1 renal
NCI-H460 lung = system: NCI-H460 lung
SK-OV-3 ovarian = system: SK-OV-3 ovarian
SF-539 CNS = system: SF-539 CNS
SK-MEL-5 melanoma = system: SK-MEL-5 melanoma

SMILES: CC1(C)[C@@H]2CC[C@@]1(C)C1(SS1=O)C21Cc2ccccc2C1 (stereo partly specified)
- TGI (NCI-H522 lung): 30.8 µM
- TGI (RPMI-8226 leukemia): 50.5 µM
- TGI (CCRF-CEM leukemia): 36.3 µM
- TGI (SK-MEL-2 melanoma): 60.5 µM
- TGI (DU-145 prostate): 45.4 µM
- TGI (UO-31 renal): 35.8 µM
- TGI (MDA-MB-435): 99 µM
- TGI (OVCAR-8 ovarian): 31 µM
- TGI (SN12C renal): 35.8 µM
- TGI (T-47D breast): 70.3 µM
- TGI (MALME-3M melanoma): > 100 µM
- TGI (A498 renal): 97.3 µM
- TGI (HOP-62 NSCLC): > 100 µM
- TGI (HCC-2998 colon): 36.9 µM
- TGI (NCI-H23 lung): > 100 µM
- TGI (RXF 393 renal): 38.9 µM
- TGI (LOX IMVI melanoma): 28.5 µM
- TGI (KM12 colon): > 100 µM
- TGI (K-562 leukemia): 51.6 µM
- TGI (HOP-92 NSCLC): 67.5 µM
- TGI (MCF7 breast): 63.9 µM
- TGI (HT29 colon): 40.9 µM
- TGI (HCT-116 colon): 28.5 µM
- TGI (NCI/ADR-RES ovarian): 67.5 µM
- TGI (MDA-N): 35.5 µM
- TGI (MDA-MB-231 breast): 34.9 µM
- TGI (M14 melanoma): > 100 µM
- TGI (OVCAR-5 ovarian): 45.7 µM
- TGI (BT-549 breast): 85.9 µM
- TGI (SK-MEL-28 melanoma): 54 µM
- TGI (SR leukemia): 54.5 µM
- TGI (UACC-62 melanoma): 70 µM
- TGI (NCI-H226 lung): > 100 µM
- TGI (A549 NSCLC): > 100 µM
- TGI (PC-3 prostate): 41.7 µM
- TGI (786-0 renal): 31.3 µM
- TGI (SNB-75 CNS): > 100 µM
- TGI (MOLT-4 leukemia): 58.4 µM
- TGI (SW-620 colon): 36.1 µM
- TGI (TK-10 renal): 38.7 µM
- TGI (ACHN renal): 45.5 µM
- TGI (UACC-257 melanoma): 55.9 µM
- TGI (HS 578T breast): > 100 µM
- TGI (SF-268 CNS): > 100 µM
- TGI (OVCAR-4 ovarian): 32 µM
- TGI (HL-60(TB) leukemia): 42.5 µM
- TGI (EKVX NSCLC): 73 µM
- TGI (SNB-19 CNS): > 100 µM
- TGI (OVCAR-3 ovarian): > 100 µM
- TGI (IGROV1 ovarian): 37.2 µM
- TGI (U251 CNS): 84.5 µM
- TGI (SF-295 CNS): > 100 µM
- TGI (HCT-15 colon): 63.7 µM
- TGI (COLO 205 colon): 99 µM
- TGI (CAKI-1 renal): 45.6 µM
- TGI (NCI-H460 lung): 52.2 µM
- TGI (SK-OV-3 ovarian): > 100 µM
- TGI (SF-539 CNS): 72.3 µM

SMILES: COc1ccc(C2Oc3ccc(Cl)cc3C=C2[N+](=O)[O-])cc1OC (stereo unspecified)
- TGI (NCI-H522 lung): 2.66 µM
- TGI (RPMI-8226 leukemia): 0.608 µM
- TGI (CCRF-CEM leukemia): 0.372 µM
- TGI (SK-MEL-2 melanoma): 3.05 µM
- TGI (DU-145 prostate): 2.97 µM
- TGI (SK-MEL-5 melanoma): 2.96 µM
- TGI (UO-31 renal): 3.47 µM
- TGI (MDA-MB-435): 1.21 µM
- TGI (OVCAR-8 ovarian): 2.64 µM
- TGI (SN12C renal): 2.82 µM
- TGI (T-47D breast): 4.35 µM
- TGI (MALME-3M melanoma): 4.28 µM
- TGI (A498 renal): 7.36 µM
- TGI (HOP-62 NSCLC): 3.12 µM
- TGI (HCC-2998 colon): 3.33 µM
- TGI (NCI-H23 lung): 4.35 µM
- TGI (RXF 393 renal): 3.04 µM
- TGI (LOX IMVI melanoma): 1.43 µM
- TGI (KM12 colon): 2.86 µM
- TGI (K-562 leukemia): 1.08 µM
- TGI (HOP-92 NSCLC): 4.33 µM
- TGI (MCF7 breast): 3.39 µM
- TGI (HCT-116 colon): 1.62 µM
- TGI (NCI/ADR-RES ovarian): 2.12 µM
- TGI (MDA-N): 1.11 µM
- TGI (MDA-MB-231 breast): 2.59 µM
- TGI (M14 melanoma): 1.63 µM
- TGI (OVCAR-5 ovarian): 3.14 µM
- TGI (BT-549 breast): 2.62 µM
- TGI (SK-MEL-28 melanoma): 3.58 µM
- TGI (SR leukemia): 0.307 µM
- TGI (UACC-62 melanoma): 3.65 µM
- TGI (NCI-H226 lung): 4.24 µM
- TGI (A549 NSCLC): 5.04 µM
- TGI (PC-3 prostate): 2.95 µM
- TGI (786-0 renal): 0.871 µM
- TGI (SNB-75 CNS): 2.45 µM
- TGI (MOLT-4 leukemia): 0.733 µM
- TGI (SW-620 colon): 0.497 µM
- TGI (TK-10 renal): 2.87 µM
- TGI (ACHN renal): 2.77 µM
- TGI (UACC-257 melanoma): 4.07 µM
- TGI (HS 578T breast): 15.5 µM
- TGI (SF-268 CNS): 5 µM
- TGI (OVCAR-4 ovarian): 3.46 µM
- TGI (HL-60(TB) leukemia): 0.47 µM
- TGI (EKVX NSCLC): 7.13 µM
- TGI (SNB-19 CNS): 5.02 µM
- TGI (OVCAR-3 ovarian): 2.06 µM
- TGI (IGROV1 ovarian): 3.35 µM
- TGI (U251 CNS): 2.35 µM
- TGI (SF-295 CNS): 3.46 µM
- TGI (HCT-15 colon): 3.09 µM
- TGI (COLO 205 colon): 4.41 µM
- TGI (CAKI-1 renal): 3.93 µM
- TGI (NCI-H460 lung): 5.95 µM
- TGI (SK-OV-3 ovarian): 6.11 µM
- TGI (SF-539 CNS): 3.13 µM
